This note sets out measurements from ChEMBL document CHEMBL2157957, “Strategies to mitigate the bioactivation of 2-anilino-7-aryl-pyrrolo[2,1-f][1,2,4]triazines: identification of orally bioavailable, efficacious ALK inhibitors” (J Med Chem, 2012).

In general, pIC50 refers to the negative decadic logarithm of the IC50, by convention in mol/L. A word on the half-life: it is the time needed for the level to fall by half in the phase considered. What is called clearance is the rate of elimination divided by the concentration. The term bioavailability denotes the share of a dose that reaches the circulation, judged against a reference dose that is usually intravenous. As a reminder, the inhibition in vivo is the drop in the measured response relative to a control, in per cent. The AUC(0-t) is exposure summed from dosing to a finite time, without extrapolation to infinity.

Series [1] addresses ALK tyrosine kinase receptor (Homo sapiens, UniProt Q9UM73). Kind of series: Inhibition of GST-tagged human ALK cytoplasmic domain (1058-1620) expressed in Sf21 insect cells using GST-tagged human recombinant PLC-gamma/substrate by ELISA. On the technique in general: ELISA stands for enzyme-linked immunosorbent assay.
Series [2] in a line: Half life in Sprague-Dawley rat liver microsomes at 0.5 uM preincubated for 10 mins before NADPH and UDPGA challenge. Format: ADME, Microsome. (Liver microsomes are a subcellular fraction often used to study metabolism.)
Series [3] can be described thus: Half life in Sprague-Dawley rat at 1 mg/kg, iv. Format: ADME, organism-based. The arrangement: dose 1 mg/kg, route intravenous. As to conditions: in vivo.
Series [4] can be described thus: Clearance in Sprague-Dawley rat at 1 mg/kg, iv. Format: ADME, organism-based. Set-up: dose 1 mg/kg, route intravenous. The settings on record: in vivo.
Series [5] can be described thus: Oral bioavailability in Sprague-Dawley rat at 5 mg/kg. It counts as ADME, organism-based. The settings on record: in vivo.
In another series the target is Insulin receptor (Homo sapiens, UniProt P06213). Kind of series: Inhibition of IR.
Insulin receptor, sequence (P06213 28-758 limits assumed): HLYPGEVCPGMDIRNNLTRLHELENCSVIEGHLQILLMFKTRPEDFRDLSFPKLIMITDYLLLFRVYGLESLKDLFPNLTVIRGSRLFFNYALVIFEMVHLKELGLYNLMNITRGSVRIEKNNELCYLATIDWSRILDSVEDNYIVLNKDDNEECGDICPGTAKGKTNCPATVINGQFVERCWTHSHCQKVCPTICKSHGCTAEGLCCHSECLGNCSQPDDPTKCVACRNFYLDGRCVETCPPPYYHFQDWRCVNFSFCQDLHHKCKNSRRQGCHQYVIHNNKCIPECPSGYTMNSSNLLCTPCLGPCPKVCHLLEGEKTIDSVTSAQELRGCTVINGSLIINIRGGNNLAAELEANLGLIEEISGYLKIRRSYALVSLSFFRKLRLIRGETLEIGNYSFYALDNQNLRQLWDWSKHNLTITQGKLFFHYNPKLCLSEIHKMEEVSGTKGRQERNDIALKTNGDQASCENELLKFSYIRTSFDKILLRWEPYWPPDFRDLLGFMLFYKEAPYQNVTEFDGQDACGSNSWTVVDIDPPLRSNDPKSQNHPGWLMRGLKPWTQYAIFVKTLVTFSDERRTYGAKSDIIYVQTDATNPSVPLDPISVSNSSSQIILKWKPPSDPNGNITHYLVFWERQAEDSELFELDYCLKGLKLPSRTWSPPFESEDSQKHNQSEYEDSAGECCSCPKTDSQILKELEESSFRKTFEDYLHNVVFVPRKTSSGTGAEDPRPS
Insulin receptor, sequence (P06213 763-1382 limits assumed): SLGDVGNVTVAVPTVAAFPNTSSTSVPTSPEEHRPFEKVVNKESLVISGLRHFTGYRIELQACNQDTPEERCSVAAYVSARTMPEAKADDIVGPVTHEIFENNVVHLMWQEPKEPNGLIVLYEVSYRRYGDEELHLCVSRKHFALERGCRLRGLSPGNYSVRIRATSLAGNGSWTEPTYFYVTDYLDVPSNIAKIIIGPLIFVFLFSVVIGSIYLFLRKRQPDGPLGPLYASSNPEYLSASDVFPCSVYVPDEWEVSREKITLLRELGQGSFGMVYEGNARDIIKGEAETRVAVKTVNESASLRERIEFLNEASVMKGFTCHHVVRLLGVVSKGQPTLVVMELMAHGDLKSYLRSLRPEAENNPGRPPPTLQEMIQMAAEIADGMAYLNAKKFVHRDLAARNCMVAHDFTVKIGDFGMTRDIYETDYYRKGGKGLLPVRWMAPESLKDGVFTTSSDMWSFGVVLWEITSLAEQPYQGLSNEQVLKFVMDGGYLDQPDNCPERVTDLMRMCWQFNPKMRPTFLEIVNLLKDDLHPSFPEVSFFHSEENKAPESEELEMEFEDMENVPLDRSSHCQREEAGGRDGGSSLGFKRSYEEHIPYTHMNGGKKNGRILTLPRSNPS
The nature of series [6]: Half life in rat liver S9 fraction. Format: ADME, subcellular.
Series [7] has as its target NPM/ALK (Nucleophosmin/ALK tyrosine kinase receptor) (Homo sapiens, UniProt Q9UM73). Kind of series: Inhibition of human NPM-ALK phosphorylation using 4-MeUP substrate by cell based assay.
A short description of series [8]: Half life in monkey liver microsomes at 0.5 uM preincubated for 10 mins before NADPH and UDPGA challenge. Format: ADME, Macaca mulatta, Microsome. As to conditions: rhesus monkey.
Series [9] in a line: Half life in human liver microsomes at 0.5 uM preincubated for 10 mins before NADPH and UDPGA challenge. It counts as ADME, Microsome.
A short description of series [10]: Half life in CD1 mouse liver microsomes at 0.5 uM preincubated for 10 mins before NADPH and UDPGA challenge. Format: ADME, Microsome.
The test system of a further series is Mus musculus. The experiment in a line: Inhibition of NPM-ALK phosphorylation in human SUP-M2 cells xenografted in SCID mouse at 30 mg/kg, po administered as single dose measured 12 hrs post dose. Format: functional. The settings on record: SUP-M2, 12 h. A general note: Xenograft models place foreign cells or tissue in a host animal.
Series [11] in a line: AUC (0 to t) in Sprague-Dawley rat at 5 mg/kg, po. It counts as ADME, organism-based. The arrangement: dose 5 mg/kg, route oral. The settings on record: plasma.

pIC50: −log10 of the molar value. A value given as a limit tells only on which side of the number the result lay.

NPM/ALK (Nucleophosmin/ALK tyrosine kinase receptor), sequence (Q9UM73 whole entry): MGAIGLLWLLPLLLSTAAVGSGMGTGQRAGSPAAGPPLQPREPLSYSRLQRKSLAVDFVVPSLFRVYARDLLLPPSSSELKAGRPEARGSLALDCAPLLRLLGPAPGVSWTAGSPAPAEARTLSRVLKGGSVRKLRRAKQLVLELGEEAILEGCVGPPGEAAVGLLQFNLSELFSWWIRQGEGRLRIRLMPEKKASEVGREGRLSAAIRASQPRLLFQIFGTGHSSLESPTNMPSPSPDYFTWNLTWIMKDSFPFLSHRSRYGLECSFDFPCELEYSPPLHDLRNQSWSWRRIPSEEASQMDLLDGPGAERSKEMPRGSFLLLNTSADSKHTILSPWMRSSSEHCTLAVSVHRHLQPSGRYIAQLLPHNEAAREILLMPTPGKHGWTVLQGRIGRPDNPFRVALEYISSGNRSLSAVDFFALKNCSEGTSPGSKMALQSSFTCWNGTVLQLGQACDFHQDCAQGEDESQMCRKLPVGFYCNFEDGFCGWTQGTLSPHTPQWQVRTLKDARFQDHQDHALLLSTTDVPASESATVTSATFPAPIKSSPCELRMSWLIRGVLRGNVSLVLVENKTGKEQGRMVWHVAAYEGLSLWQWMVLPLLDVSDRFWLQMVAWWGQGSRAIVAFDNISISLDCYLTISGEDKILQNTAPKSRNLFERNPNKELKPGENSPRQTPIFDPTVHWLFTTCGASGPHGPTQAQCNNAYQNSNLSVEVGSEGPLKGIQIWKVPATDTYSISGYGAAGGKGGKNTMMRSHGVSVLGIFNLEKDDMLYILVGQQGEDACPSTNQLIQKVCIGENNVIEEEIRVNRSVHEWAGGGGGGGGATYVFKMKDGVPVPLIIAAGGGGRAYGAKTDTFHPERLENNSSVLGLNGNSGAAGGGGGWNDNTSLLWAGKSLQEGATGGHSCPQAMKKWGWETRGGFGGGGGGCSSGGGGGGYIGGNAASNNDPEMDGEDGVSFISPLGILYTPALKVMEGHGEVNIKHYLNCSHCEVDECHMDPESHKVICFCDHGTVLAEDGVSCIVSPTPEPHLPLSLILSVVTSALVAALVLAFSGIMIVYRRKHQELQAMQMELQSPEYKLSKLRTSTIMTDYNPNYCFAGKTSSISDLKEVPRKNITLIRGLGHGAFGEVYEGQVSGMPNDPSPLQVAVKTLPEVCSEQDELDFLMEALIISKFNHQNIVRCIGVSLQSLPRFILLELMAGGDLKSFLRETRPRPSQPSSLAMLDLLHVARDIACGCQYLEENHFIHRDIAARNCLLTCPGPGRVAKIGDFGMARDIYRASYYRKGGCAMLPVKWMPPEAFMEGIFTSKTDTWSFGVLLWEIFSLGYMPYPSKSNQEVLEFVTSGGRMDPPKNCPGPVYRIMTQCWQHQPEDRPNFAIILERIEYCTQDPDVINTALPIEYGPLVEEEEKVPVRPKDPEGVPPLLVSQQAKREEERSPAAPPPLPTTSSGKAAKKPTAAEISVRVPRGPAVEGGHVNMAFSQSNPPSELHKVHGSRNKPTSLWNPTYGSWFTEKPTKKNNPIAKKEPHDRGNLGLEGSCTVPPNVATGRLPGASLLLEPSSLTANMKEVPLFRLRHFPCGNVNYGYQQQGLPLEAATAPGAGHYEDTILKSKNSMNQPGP
NPM/ALK (Nucleophosmin/ALK tyrosine kinase receptor), sequence (P06748 whole entry, further chain): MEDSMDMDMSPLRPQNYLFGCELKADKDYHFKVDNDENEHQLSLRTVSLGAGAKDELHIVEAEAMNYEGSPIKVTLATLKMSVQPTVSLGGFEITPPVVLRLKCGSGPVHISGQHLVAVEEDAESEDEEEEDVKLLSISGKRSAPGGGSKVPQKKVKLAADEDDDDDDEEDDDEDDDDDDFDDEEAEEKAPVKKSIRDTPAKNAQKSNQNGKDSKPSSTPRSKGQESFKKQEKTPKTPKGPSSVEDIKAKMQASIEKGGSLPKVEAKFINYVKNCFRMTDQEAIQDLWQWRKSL
ALK tyrosine kinase receptor, sequence (Q9UM73 whole entry, the tested form may be a part): as the sequence (Q9UM73 whole entry) above

Turning to `COc1cc(C2CCN(C[C@H](O)CO)CC2)ccc1Nc1ncc2ccc(-c3ccccc3OC)n2n1`, the values for the negative logarithm of the IC50 (pIC50) (in [1]; on Insulin receptor; in [7]) were 8.54, 6.79 and 7.52, respectively. In addition, in series [2], the half-life at 0.5 µM was greater than 40 min. For the same molecule, the half-life in series [3] was 120 min; in series [6], greater than 40 min. For the same molecule, in series [4], the clearance stood at 39 mL/min/kg. In addition, in [5], the bioavailability was determined as 15%.
Turning to `COc1ccc(N2CCN(C)CC2)cc1Nc1ncc2ccc(-c3ccccc3N(C)S(C)(=O)=O)n2n1`, the pIC50 in series [1] was 7.55.
On to `COc1cc(C2CCN(CC(N)=O)CC2)ccc1Nc1ncc2c(O)cc(-c3ccccc3N(C)S(C)(=O)=O)n2n1`, for which the pIC50 in series [1] is 7.96. Besides, the half-life at 0.5 µM in series [2], in series [8], in [9] and in series [10] was less than 5 min throughout.
As for `COc1cc(N2CCN(C[C@H](C)O)CC2)c(F)cc1Nc1ncc2ccc(-c3ccccc3N(C)S(C)(=O)=O)n2n1`, the pIC50 in series [1] was 7.85; in series [7], 6.70.
With `COc1cc(C2CCN(CC(N)=O)CC2)ccc1Nc1ncc2c(C)cc(-c3ccccc3N(C)S(C)(=O)=O)n2n1`, the negative-log IC50 (pIC50) in series [1] was 8.22; in series [7], 7.15. In addition, the half-life at 0.5 µM in series [2] was 31 min; in series [8] it was 6 min; in series [9], 18 min; in series [10], greater than 40 min. Also, the half-life in series [3] is greater than 120 min. This molecule also had a clearance in series [4] of no more than 4 mL/min/kg. This molecule also came in with a bioavailability in series [5] of 24%. Besides, the inhibition in vivo at 30 mg/kg in the series with Mus musculus was less than 75%.
As for `C[C@H](O)CN1CCN(c2cc(F)c(Nc3ncc4ccc(-c5ccccc5N(C)S(C)(=O)=O)n4n3)cc2F)CC1`, the pIC50 in series [1] is 7.04.
Regarding `COc1cc(C2CCNCC2)ccc1Nc1ncc2ccc(-c3ccccc3N(C)S(C)(=O)=O)n2n1`, the negative-log IC50 (pIC50) in series [1] was 8.00; in [7], 7.40. The half-life at 0.5 µM in series [2] was 22 min; in series [8], less than 5 min; in [9] it was 7 min; in series [10], greater than 40 min.
As to `COc1ccc(N2CCN(C)CC2)cc1Nc1ncc2ccc(-c3ccccc3OC)n2n1`, in series [1], the pIC50 is 6.73.
As to `COc1cc(C2CCN(CC(N)=O)CC2)ccc1Nc1ncc2ccc(-c3ccccc3C#N)n2n1`, the pIC50 was 7.72 in series [1], 6.13 against Insulin receptor and 6.60 in series [7].
Turning to `COc1ccc(-c2ccc3cnc(Nc4ccc(C5CCN(CC(N)=O)CC5)cc4OC)nn23)c(OC)c1`, the negative-log IC50 (pIC50) in [1] was 7.92; on Insulin receptor, 5.53; in [7], 6.30.
As to `COc1cc(C2CCN(C[C@@H](C)O)CC2)ccc1Nc1ncc2ccc(-c3ccccc3OC)n2n1`, the negative logarithm of the IC50 (pIC50) in series [1] was 8.47; in [7] it was 7.00. The half-life at 0.5 µM in series [2] was greater than 40 min; in series [8], 21 min; in series [9], greater than 40 min; in series [10], greater than 40 min. This molecule displayed a bioavailability in series [5] of less than 1%. In [11], this molecule yielded an exposure AUC(0-t) of 11 ng·h/mL. Further, the half-life in series [6] was greater than 40 min.
`COc1c(Nc2ncc3ccc(-c4ccccc4N(C)S(C)(=O)=O)n3n2)ccc(N2CCN(C[C@H](C)O)CC2)c1F`: in series [1], the pIC50 was 7.25.
For `COc1cc(C2CCN(CC(O)CF)CC2)ccc1Nc1ncc2ccc(-c3ccccc3OC)n2n1` (racemic), the pIC50 in series [1] was 8.52; against Insulin receptor it was 6.83; in series [7], 7.10. In addition, the half-life at 0.5 µM in [2] is greater than 40 min. Further, the results for the half-life in [3] and in series [6] were 84 min and greater than 40 min, respectively. In addition, in series [4], the clearance worked out at 62 mL/min/kg. The bioavailability in series [5] turned out to be 16%.
`COc1cc(C2CCN(CCO)CC2)ccc1Nc1ncc2ccc(-c3ccccc3N(C)S(C)(=O)=O)n2n1`: the results for the pIC50 in [1] and in [7] were 8.22 and 7.22, respectively. In addition, the half-life at 0.5 µM in series [2] was 21 min; in series [8], less than 5 min; in series [9], less than 5 min; in series [10] it was greater than 40 min.
Turning to `COc1cc(C2CCN(C)CC2)ccc1Nc1ncc2ccc(-c3ccccc3OC)n2n1`, the results for the negative-log IC50 (pIC50) (in [1]; at Insulin receptor; in [7]) were 8.22, 6.65 and 7.15, respectively. The same molecule gave a half-life in series [3] of 84 min. For the same molecule, the clearance in series [4] came to 29 mL/min/kg. The same molecule registered a bioavailability in [5] of 3%.
Regarding `COc1cc(C2CCN(C(=O)C3CCN3)CC2)ccc1Nc1ncc2ccc(-c3ccccc3OC)n2n1` (racemic), the results for the negative-log IC50 (pIC50) (in series [1]; on Insulin receptor; in series [7]) were 7.96, 6.47 and 6.70, respectively. The molecule further registered a half-life at 0.5 µM in series [2] greater than 40 min. For the same molecule, the half-life in series [3] was 150 min; in series [6] it was greater than 40 min. The same molecule had a clearance in [4] of 32 mL/min/kg. The molecule further displayed a bioavailability in [5] of 15%.
With `COc1cc(C2CCN(C[C@@H](C)O)CC2)ccc1Nc1ncc2ccc(-c3ccccc3N(C)S(C)(=O)=O)n2n1`, the negative-log IC50 (pIC50) in series [1] was 8.22; in [7], 7.15. Also, the half-life at 0.5 µM is 11 min in series [2], less than 5 min in series [8], less than 5 min in series [9] and greater than 40 min in series [10].
For `COc1cc(C2CCN(CC(N)=O)CC2)ccc1Nc1ncc2ccc(-c3ncccc3OC)n2n1`, the figures for the negative-log IC50 (pIC50) (in series [1]; against Insulin receptor) were 5.97 and less than 5.00, respectively.
Consider `COc1cc(C2CCN(CC(N)=O)CC2)ccc1Nc1ncc2c(Cl)cc(-c3ccccc3N(C)S(C)(=O)=O)n2n1`, for which the pIC50 in series [1] was 8.33; in series [7], 7.15. For the same molecule, the half-life at 0.5 µM in [2] is greater than 40 min; in series [8] it was 15 min; in series [9] it was 37 min; in series [10], greater than 40 min. Moreover, the half-life in [3] is greater than 120 min. For the same molecule, the clearance in series [4] was no more than 4 mL/min/kg. In [5], the bioavailability was 41%. The same molecule displayed an inhibition in vivo at 30 mg/kg in the series with Mus musculus of less than 75%.
Regarding `COc1cc(C2CCN(CC(N)=O)CC2)ccc1Nc1ncc2ccc(-c3ccncc3OC)n2n1`, the negative logarithm of the IC50 (pIC50) in series [1] is 8.05; at Insulin receptor, 6.39; in series [7] it was 6.82.
`CNC(=O)CN1CCC(c2ccc(Nc3ncc4ccc(-c5ccccc5OC)n4n3)c(OC)c2)CC1`: the values for the pIC50 (in series [1]; at Insulin receptor; in [7]) were 8.00, 6.79 and 7.00, respectively. The half-life at 0.5 µM in series [8] and in series [9] was less than 12 min each time.
For the molecule `COc1cc(C2CCN(C(=O)C(C)(C)N)CC2)ccc1Nc1ncc2ccc(-c3ccccc3OC)n2n1`, the negative logarithm of the IC50 (pIC50) was 8.15 in series [1], 6.24 on Insulin receptor and 6.82 in series [7]. Besides, the half-life at 0.5 µM in series [2] is greater than 40 min. In addition, the values for the half-life in series [3] and in [6] were 156 min and greater than 40 min, respectively. In addition, in [4], the clearance is 25 mL/min/kg. Moreover, the bioavailability in series [5] stood at 13%.
Regarding `COc1cc(C2CCN(CC(N)=O)CC2)ccc1Nc1ncc2ccc(-c3ccccc3N(C)S(C)(=O)=O)n2n1`, the negative-log IC50 (pIC50) is 7.82 in [1], 6.26 on Insulin receptor and 7.10 in series [7]. For the same molecule, the half-life at 0.5 µM in [2] was less than 5 min; in series [8] it was less than 5 min; in [9], less than 5 min; in series [10], 29 min.
